# Test: ANCHOR: RBC fatty acid concentrations, ratios and class proportions (GC/FID)
# Format: in vivo, human
# Design: DHA RBC End-of-treatment / DHA RBC Change from baseline / DPAn-3 RBC End-of-treatment / DPAn-3 RBC Change from baseline / AA RBC End-of-treatment / AA RBC Change from baseline / Stearic RBC End-of-treatment / Stearic RBC Change from baseline / Oleic RBC End-of-treatment / Oleic RBC Change from baseline / Linoleic RBC End-of-treatment / Linoleic RBC Change from baseline: unit not given here
# Settings: for AA RBC Placebo-adjusted percent change from baseline / DHA RBC Placebo-adjusted percent change from baseline / DPAn-3 RBC Placebo-adjusted percent change from baseline / Linoleic RBC Placebo-adjusted percent change from baseline / Oleic RBC Placebo-adjusted percent change from baseline / Palmitic RBC Placebo-adjusted percent change from baseline / Ratio of AA/EPA RBC Placebo-adjusted percent change from baseline / Ratio of total ω-3/total ω-6 RBC Placebo-adjusted percent change from baseline / Stearic RBC Placebo-adjusted percent change from baseline: week 12, LS mean; for Monounsaturated, proportion of total fatty acids, RBCs, Change from baseline / Saturated, proportion of total fatty acids, RBCs, Change from baseline / Total ω-3, proportion of total fatty acids, RBCs, Change from baseline / Total ω-6, proportion of total fatty acids, RBCs, Change from baseline: LS mean (SE); for AA RBC End-of-treatment / DHA RBC End-of-treatment / DPAn-3 RBC End-of-treatment / Linoleic RBC End-of-treatment / Oleic RBC End-of-treatment / Palmitic RBC End-of-treatment / Ratio of AA/EPA RBC End-of-treatment / Ratio of total ω-3/total ω-6 RBC End-of-treatment / Stearic RBC End-of-treatment: week 12, mean; for Monounsaturated, proportion of total fatty acids, RBCs, End-of-treatment / Saturated, proportion of total fatty acids, RBCs, End-of-treatment / Total ω-3, proportion of total fatty acids, RBCs, End-of-treatment / Total ω-6, proportion of total fatty acids, RBCs, End-of-treatment: week 12, mean (SD)
# Procedure: A multi-center, placebo-controlled, randomized, double-blind, 12-week study was performed to evaluate the efficacy and safety of >96% E-EPA in patients with fasting triglyceride levels≥200 mg/dl and <500 mg/dl despite statin therapy (the mean of two qualifying entry values needed to be ≥185 mg/dl and at least one of the values needed to be ≥200 mg/dl). The primary objective of the study was to determine the efficacy of >96% E-EPA 2 g daily and 4 g daily, compared to placebo, in lowering fasting TG levels in patients with high risk for cardiovascular disease and with fasting TG levels≥200 mg/dL and <500 mg/dL, despite treatment to LDL-C goal on statin therapy.
# During the double-blind treatment period, patients were to take 2 capsules (>96% E-EPA or matching placebo) in the morning and 2 capsules in the evening for a total of 4 capsules per day. • Patients in the >96% E-EPA 2 g/day treatment group received 1>96% E-EPA 1 g capsule and 1 matching placebo capsule in the morning and in the evening. • Patients in the >96% E-EPA 4 g/day treatment group received 2>96% E-EPA 1 g capsules in the morning and evening. • Patients in the placebo group received 2 matching placebo capsules in the morning and evening.
# Lipids were extracted from plasma and red blood cell (“RBC”) suspensions and converted into fatty acid methyl esters for analysis using a standard validated gas chromatography/flame ionization detection method. Fatty acid parameters were compared between EPA treatment groups and placebo using an ANCOVA model with treatment, gender, type of statin therapy, and presence of diabetes as factors, and the baseline parameter value as a covariate. LSMs, SEs, and 2-tailed 95% confidence intervals for each treatment group and for each comparison were determined.
# The monounsaturated fatty acid group included myristoleic, palmitoleic, cis-vaccenic, oleic, gondoic/gadoleic, erucic and nervonic acids. The saturated fatty acid group included myristic, palmitic, stearic, arachidic, behenic and lignoceric acids. The “total ω-3” group included α-linolenic, stearidonic, eicosatrienoic, ω-3 arachidonic, eicosapentaenoic, ω-3 docosapentaenoic and docosahecaenoic acids. The “total ω-6” group included linoleic, γ-linolenic, eicosadienoic, dihomo-γ-linolenic, ω-6 arachidonic, adrenic, and ω-6 docosapentaenoic acids. The “total fatty acid” group represented the sum of the monounsaturated, saturated, total ω-3 and total ω-6 groups.
# [1] = 2 g/day, baseline to week 12, LS mean (SE)
# [2] = 4 g/day, baseline to week 12, LS mean
compound,measurement,setting,value
"CC/C=C\C/C=C\C/C=C\C/C=C\C/C=C\CCCC(=O)OCC [IPE, all-cis eicosa-5,8,11,14,17-pentaenoic acid ethyl ester]","Monounsaturated, proportion of total fatty acids, RBCs, Placebo-adjusted percent change from baseline",2 g/day vs placebo,−0.7%
same,"Saturated, proportion of total fatty acids, RBCs, Placebo-adjusted percent change from baseline",2 g/day vs placebo,1.3%
same,"Total ω-3, proportion of total fatty acids, RBCs, Placebo-adjusted percent change from baseline",2 g/day vs placebo,50.0%
same,"Total ω-6, proportion of total fatty acids, RBCs, Placebo-adjusted percent change from baseline",2 g/day vs placebo,−11.3%
same,AA RBC Placebo-adjusted percent change from baseline,2 g/day vs placebo,−11.6%
same,DHA RBC Placebo-adjusted percent change from baseline,2 g/day vs placebo,−5.4%
same,DPAn-3 RBC Placebo-adjusted percent change from baseline,2 g/day vs placebo,74.9%
same,Linoleic RBC Placebo-adjusted percent change from baseline,2 g/day vs placebo,−2.1%
same,Oleic RBC Placebo-adjusted percent change from baseline,2 g/day vs placebo,1.6%
same,Palmitic RBC Placebo-adjusted percent change from baseline,2 g/day vs placebo,0.5%
same,Ratio of AA/EPA RBC Placebo-adjusted percent change from baseline,2 g/day vs placebo,−87.1%
same,Ratio of total ω-3/total ω-6 RBC Placebo-adjusted percent change from baseline,2 g/day vs placebo,60.4%
same,Stearic RBC Placebo-adjusted percent change from baseline,2 g/day vs placebo,1.6%
same,"Monounsaturated, proportion of total fatty acids, RBCs, Change from baseline",2 g/day,−0.1 (0.2) mol %
same,"Saturated, proportion of total fatty acids, RBCs, Change from baseline",2 g/day,−0.3 (0.3) mol %
same,"Total ω-3, proportion of total fatty acids, RBCs, Change from baseline",2 g/day,2.6 (0.2) mol %
same,"Total ω-6, proportion of total fatty acids, RBCs, Change from baseline",2 g/day,−2.4 (0.4) mol %
same,AA RBC Change from baseline,[1],−20.0 (3.3)
same,DHA RBC Change from baseline,[1],−5.5 (0.9)
same,DPAn-3 RBC Change from baseline,[1],21.2 (1.3)
same,Linoleic RBC Change from baseline,[1],−1.3 (3.5)
same,Oleic RBC Change from baseline,[1],3.1 (2.8)
same,Palmitic RBC Change from baseline,[1],4.9 (4.1)
same,Ratio of AA/EPA RBC Change from baseline,[1],−21.9 (0.8)
same,Ratio of total ω-3/total ω-6 RBC Change from baseline,[1],0.1 (0.01)
same,Stearic RBC Change from baseline,[1],3.9 (2.3)
same,AA RBC End-of-treatment,2 g/day,173.0
same,DHA RBC End-of-treatment,2 g/day,44.7
same,DPAn-3 RBC End-of-treatment,2 g/day,52.2
same,Linoleic RBC End-of-treatment,2 g/day,153.1
same,Oleic RBC End-of-treatment,2 g/day,204.7
same,Palmitic RBC End-of-treatment,2 g/day,321.1
same,Ratio of AA/EPA RBC End-of-treatment,2 g/day,6.4
same,Ratio of total ω-3/total ω-6 RBC End-of-treatment,2 g/day,0.3
same,Stearic RBC End-of-treatment,2 g/day,178.7
same,"Monounsaturated, proportion of total fatty acids, RBCs, End-of-treatment",2 g/day,19.9 (1.1) mol %
same,"Saturated, proportion of total fatty acids, RBCs, End-of-treatment",2 g/day,43.5 (2.1) mol %
same,"Total ω-3, proportion of total fatty acids, RBCs, End-of-treatment",2 g/day,8.5 (1.5) mol %
same,"Total ω-6, proportion of total fatty acids, RBCs, End-of-treatment",2 g/day,28.1 (2.1) mol %
same,"Monounsaturated, proportion of total fatty acids, RBCs, Placebo-adjusted percent change from baseline",4 g/day vs placebo,−2.7%
same,"Saturated, proportion of total fatty acids, RBCs, Placebo-adjusted percent change from baseline",4 g/day vs placebo,3.2%
same,"Total ω-3, proportion of total fatty acids, RBCs, Placebo-adjusted percent change from baseline",4 g/day vs placebo,89.1%
same,"Total ω-6, proportion of total fatty acids, RBCs, Placebo-adjusted percent change from baseline",4 g/day vs placebo,−19.7%
same,AA RBC Placebo-adjusted percent change from baseline,4 g/day vs placebo,−20.3%
same,DHA RBC Placebo-adjusted percent change from baseline,4 g/day vs placebo,−6.6%
same,DPAn-3 RBC Placebo-adjusted percent change from baseline,4 g/day vs placebo,122.4%
same,Linoleic RBC Placebo-adjusted percent change from baseline,4 g/day vs placebo,−11.1%
same,Oleic RBC Placebo-adjusted percent change from baseline,4 g/day vs placebo,−3.7%
same,Palmitic RBC Placebo-adjusted percent change from baseline,4 g/day vs placebo,−2.7%
same,Ratio of AA/EPA RBC Placebo-adjusted percent change from baseline,4 g/day vs placebo,−98.5%
same,Ratio of total ω-3/total ω-6 RBC Placebo-adjusted percent change from baseline,4 g/day vs placebo,123.0%
same,Stearic RBC Placebo-adjusted percent change from baseline,4 g/day vs placebo,−1.3%
same,"Monounsaturated, proportion of total fatty acids, RBCs, Change from baseline",4 g/day,−0.5 (0.2) mol %
same,"Saturated, proportion of total fatty acids, RBCs, Change from baseline",4 g/day,0.5 (0.3) mol %
same,"Total ω-3, proportion of total fatty acids, RBCs, Change from baseline",4 g/day,4.9 (0.2) mol %
same,"Total ω-6, proportion of total fatty acids, RBCs, Change from baseline",4 g/day,−4.9 (0.4) mol %
same,AA RBC Change from baseline,[2],−37.5
same,DHA RBC Change from baseline,[2],−6.4
same,DPAn-3 RBC Change from baseline,[2],33.6
same,Linoleic RBC Change from baseline,[2],−16.1
same,Oleic RBC Change from baseline,[2],−8.0
same,Palmitic RBC Change from baseline,[2],−6.3
same,Ratio of total ω-3/total ω-6 RBC Change from baseline,[2],0.2
same,Stearic RBC Change from baseline,[2],−1.4
same,AA RBC End-of-treatment,4 g/day,153.1
same,DHA RBC End-of-treatment,4 g/day,39.0
same,DPAn-3 RBC End-of-treatment,4 g/day,61.9
same,Linoleic RBC End-of-treatment,4 g/day,132.7
same,Oleic RBC End-of-treatment,4 g/day,188.8
same,Palmitic RBC End-of-treatment,4 g/day,301.2
same,Ratio of AA/EPA RBC End-of-treatment,4 g/day,3.6
same,Ratio of total ω-3/total ω-6 RBC End-of-treatment,4 g/day,0.4
same,Stearic RBC End-of-treatment,4 g/day,170.5
same,"Monounsaturated, proportion of total fatty acids, RBCs, End-of-treatment",4 g/day,19.8 (1.7) mol %
same,"Saturated, proportion of total fatty acids, RBCs, End-of-treatment",4 g/day,44.2 (3.0) mol %
same,"Total ω-3, proportion of total fatty acids, RBCs, End-of-treatment",4 g/day,10.2 (2.5) mol %
same,"Total ω-6, proportion of total fatty acids, RBCs, End-of-treatment",4 g/day,25.8 (3.2) mol %

# — US11229618B2 (Amarin Pharmaceuticals Ireland Limited, priority 2012, dated 2022)
